Values after ≈ are worked out from the molar mass of the structure shown.

One assay deals with HK43. The assay is described as follows: MIC on environmental MDR isolate (microdilution). Particulars: Exiguobacterium mexicanum.
The next assay has as its system LG1. Kind of assay: MBC on environmental MDR isolate.
Another assay relates to HK1. Kind of assay: MIC on environmental MDR isolate (microdilution).
For the next assay, the system named is HK41. Kind of assay: MIC on environmental MDR isolate (microdilution). To be noted: Enterobacter cloacae.
Another assay deals with LG24. The assay is described as follows: MIC on environmental MDR isolate (microdilution). Particulars: Escherichia coli.

Consider `O=C1Nc2ccc(F)cc2/C1=N\NC(=O)c1cc(-c2cccc(Br)c2)n[nH]1` [PS9, (E)-3-(3-Bromophenyl)-N′-(5-Fluoro-2-Oxoindolin-3-Ylidene)-1H-Pyrazole-5-Carbohydrazide], for which the MIC is 16 µg/mL (≈ 37.4 µM) against HK43, 16 µg/mL (≈ 37.4 µM) against HK1, 32 µg/mL (≈ 74.7 µM) against HK41 and more than 1020 µg/mL against LG24. Besides, the minimal bactericidal concentration (MBC) with LG1 was determined as 128 µg/mL (≈ 299 µM). Besides, the “MIC lower than standard antibiotic AMP” value against HK1 (isolate HK1) is given as 16 times. Moreover, the “MIC lower than third-generation drug CTX” value in the assay on HK1 (isolate HK1) is 8 times.

The values above are taken from PMC9405123, “Design, Synthesis and Mechanistic Studies of Novel Isatin-Pyrazole Hydrazone Conjugates as Selective and Potent Bacterial MetAP Inhibitors” (Antibiotics, 2022).
